Reference: PubChem BioAssay AID493002 (Sanford-Burnham Center for Chemical Genomics, 2010)

Tested on: S. cerevisiae tim23-1 mutant growth, luminescence
Test: potency against tim23-1 yeast growth – luminescence, uHTS hits, dose response (AID 493002);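 also: yeast grown roughly 22 hours at 25 °C before the luminescence read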

## COc1ccc(N2CCN(CCC(=O)c3ccc4ccccc4c3)CC2)cc1
  IC50: 8.84 µM

## CCC1CCc2sc(C(=O)N(C)CC(=O)Nc3ccc(OC)cc3)cc2C1 (stereo not drawn)
  IC50: 19.5 µM

## CC1(C)OC(=O)C(=Cc2ccc[nH]2)C(=O)O1
  IC50: 8.73 µM

## Cc1cc(C(=O)CCl)c(C)n1CCc1ccc(Cl)cc1
  IC50: 3.7 µM

## CCc1ccc(C2CC(=O)NC(SCC(=O)OC(C)C)=C2C#N)cc1 (stereo not drawn)
  IC50: 18.2 µM

## Cc1cccc(C(=O)Oc2cccc3c(O)cccc23)c1
  IC50: 8.32 µM

## CC(C)n1cc(NC(=O)c2cc(-c3ccccc3)on2)cn1
  IC50: 7.69 µM

## CCN(CC)c1ccc(C(=O)N/N=C/c2ccccc2OC(F)F)cc1
  IC50: 15.1 µM

## N#C/C(C(N)=O)=c1/ccc2c(c1)N1C3=C(CCCC3)CC3CCCCC31N=2 (stereo not drawn)
  IC50: 7.43 µM

## O=C(CSc1cccc[n+]1[O-])CSc1cccc[n+]1[O-]
  IC50: 5.83 µM

## COc1ccc(C(=O)COC(=O)c2cncc(Br)c2)cc1
  IC50: 10.1 µM

## O=C(c1cc(-c2ccc(O)cc2)on1)N1CCCc2ccccc21
  IC50: 12.9 µM

## N#Cc1c(-c2ccccc2)cc(-c2ccc(O)cc2)nc1N
  IC50: 5.58 µM

## CCOC(=O)c1c(-c2ccccc2)oc2ccc(O)cc12
  IC50: 7.92 µM

## Cc1ccc(-c2nc(CNC(=O)c3cc(C)on3)cs2)cc1
  IC50: 15 µM

## CC1CCc2c(sc3nc(C(C)(C)C)nc(N4CCN(C(=O)CCl)CC4)c23)C1 (stereo not drawn)
  IC50: 8.61 µM

## CCOC(=O)Nc1ccc2c(c1)Nc1ccccc1S2
  IC50: 11.3 µM

## Cc1ccccc1[C@@]1(C)ON(c2ccccc2C(F)(F)F)C1=O
  IC50: 7.04 µM

## O=c1/c(=C/c2cccc3ccccc23)sc2ncnn12
  IC50: 7.13 µM

## O=C(Nc1cccc(NC(=O)c2cccs2)c1)c1ccc(Br)o1
  IC50: 9.28 µM

## COc1ccc(C(C[N+](=O)[O-])c2c(-c3ccccc3)cc3ccccn23)cc1 (stereo not drawn)
  IC50: 8.82 µM

## O=C(N/N=C/c1ccc([N+](=O)[O-])s1)c1ccncc1
  IC50: 4.88 µM

## CC(C)(C)c1ccc(OCC(=O)NCc2ccco2)c(Br)c1
  IC50: 5.94 µM

## CCCCC(=O)Nc1ccc(NC(=O)c2cccs2)cn1
  IC50: 18.8 µM

## CCCOc1cccc(C(=O)N/N=C/c2coc3ccccc3c2=O)c1
  IC50: 13.4 µM

## COc1ccc(-c2cc(-c3ccccc3)n[nH]2)c(O)c1
  IC50: 18.3 µM

## COc1ccc(NCc2ccc([N+](=O)[O-])s2)cc1
  IC50: 6.99 µM

## CS(=O)(=O)c1ccc2nc(NC(=O)c3ccco3)sc2c1
  IC50: 19.4 µM

## CCN(CC)c1ccc(C(=O)Nc2cccc(F)c2)cc1
  IC50: 5.19 µM

## COc1cccc(/C=N/NC(=O)c2cc(C34CC5CC(CC(C5)C3)C4)[nH]n2)c1
  IC50: 10.9 µM

## Oc1ccccc1-c1cc(-c2ccccc2)n[nH]1
  IC50: 15.8 µM

## COc1ccc(S(=O)(=O)CC(=O)c2cc3cccc(C)c3oc2=O)cc1
  IC50: 13 µM

## NC(=S)N/N=C/c1coc2ccc(Br)cc2c1=O
  IC50: 4.4 µM

## CC1(C)CC(n2c(NCCO)nc3c(c2=O)C2(CCCC2)Cc2ccccc2-3)CCO1 (stereo not drawn)
  IC50: 8.62 µM

## O=C(Nc1nc2c(F)cccc2s1)c1ccco1
  IC50: 16.7 µM

## O=C(CCl)Nc1cccc(-c2cnc3ccccc3n2)c1
  IC50: 9.25 µM

## CCCN1C(=O)C(=O)c2cc(Cl)ccc21
  IC50: 19.1 µM

## O=CN(/C=C1\Sc2ccccc2C1=O)Cc1ccccc1
  IC50: 7.02 µM

## Nc1ncnc2c1ncn2[C@@H]1O[C@H](CO)C[C@H]1O
  IC50: 14 µM

## CCOC(=O)Nc1cccc(NC(=O)c2ccccc2F)c1
  IC50: 13.3 µM

## CCOC(=O)c1c(N)sc(C(=O)Nc2ccccc2)c1C
  IC50: 4.11 µM

## Cc1ccc(-c2nnc(C)c(N3CCCC3)n2)cc1
  IC50: 16.6 µM

## Oc1ccc(N=Nc2ccccc2)cc1
  IC50: 15.3 µM

## CCOc1nc2ccccc2cc1C=O
  IC50: 3.43 µM

## Cc1ccc(NC(=O)CN2C(=O)CN=C(c3ccccc3)c3cc(Cl)ccc32)cc1
  IC50: 13.1 µM

## Cc1nc2ccccc2c(=O)n1/N=C/c1cc(Br)ccc1O
  IC50: 6.9 µM

## COc1ccc(C(=O)N/N=C\c2coc3ccccc3c2=O)cc1
  IC50: 13.7 µM

## O=C(CC(=O)c1cc(Cl)ccc1O)c1ccccc1
  IC50: 7.07 µM

## COc1ccc2c(c1)OC[C@H]1[C@H]2N2C(=O)c3cc(C)ccc3NC(=O)[C@@]2(C)[C@H]1c1ccccc1
  IC50: 13.1 µM

## O=C1c2ccccc2-c2n[nH]c3cccc1c23
  IC50: 6.31 µM

## O=C(Nc1ccc2oc(Cc3ccc(Cl)cc3)nc2c1)c1cccnc1
  IC50: 14.2 µM

## Nc1ccc2nc(SCc3cccc(F)c3)sc2c1
  IC50: 13.9 µM

## CCNC(=O)c1c(O)c2ccccc2[nH]c1=O
  IC50: 33.5 µM

## O=C(/C(=C/O)N=Nc1ccccc1)c1ccco1
  IC50: 10.7 µM

## COc1ccc(C(=O)N/N=C\c2coc3ccc(Cl)cc3c2=O)cc1
  IC50: 8.27 µM

## CCCCSC1=C(C#N)C(c2ccccc2C)CC(=O)N1 (stereo not drawn)
  IC50: 13.7 µM

## Cc1ccc(S(=O)(=O)Oc2ccccc2C=C2C(=O)N(C)C(=O)N(C)C2=O)cc1
  IC50: 4.22 µM

## O=[N+]([O-])c1cc(O)c2ncccc2c1
  IC50: 11.4 µM

## Cc1ccc2nc(-c3ccc(N)cc3)sc2c1
  IC50: 9.95 µM

## Cc1ccc2c(c1)C(=O)N1[C@H]3c4ccccc4OC[C@@H]3[C@H](c3ccccc3)[C@]1(C)C(=O)N2
  IC50: 4.99 µM

## C=CCn1c(SCc2cc(=O)n3ccsc3n2)nc2cc(Cl)ccc2c1=O
  IC50: 6.15 µM

## COc1ccc(Nc2nc(N)c([N+](=O)[O-])c(NC3CCCCC3)n2)cc1
  IC50: 13.6 µM

## COc1cc2c3c(c1)C(C)=CC(C)(C)N3C(=O)C2=O
  IC50: 8.81 µM

## N#C/C(N)=C(/C#N)N=Cc1cccc(Cl)c1
  IC50: 8.99 µM

## CC(/C=N/NC(=O)c1cccs1)=C\c1ccco1
  IC50: 24.3 µM

## Cc1ccc(/C=N/NC(=O)c2csc3c2CCCC3)cc1
  IC50: 15.1 µM

## COc1ccc(/C=C(\C#N)c2nc3ccccc3[nH]2)cc1O
  IC50: 14.8 µM

## Cc1nc(-c2ccc(NC(=O)C3CC3)cc2)cs1
  IC50: 20.2 µM

## CCC(=O)OCC(=O)[C@@]1(OC(=O)CC)[C@@H](C)C[C@H]2[C@@H]3CCC4=CC(=O)C=C[C@]4(C)[C@@]3(Cl)[C@@H](O)C[C@@]21C
  IC50: 14.9 µM

## O=C(Nc1cc(-c2ccccc2)[nH]n1)c1ccccc1
  IC50: 4.2 µM

## Cc1[nH][nH]c(=O)c1C(c1ccc(-c2ccc(Cl)c(Cl)c2)o1)c1c(C)[nH][nH]c1=O
  IC50: 14 µM

## Cc1nn(CC(=O)Nc2nc3ccccc3s2)c(C)c1[N+](=O)[O-]
  IC50: 8.41 µM

## COc1ccc(-c2cc(-c3ccccc3O)[nH]n2)cc1
  IC50: 9.38 µM

## Oc1ccc(-c2nccc(-c3cccs3)n2)cc1
  IC50: 20.2 µM

## O=C(N/N=C/C=C\c1ccco1)c1cccs1
  IC50: 8.95 µM

## O=Cc1ccccc1OCc1ccc2c(c1)OCO2
  IC50: 6.59 µM

## Cc1nc(Nc2ccccc2)sc1C(=O)Nc1ccccc1
  IC50: 14.6 µM

## COc1cccc(Nc2nc(-c3ccccc3)nc3ccccc23)c1
  IC50: 5.63 µM

## Cc1nc2nc(-c3cccs3)[nH]c2cc1Br
  IC50: 7.8 µM

## Cc1ccc(SCC(=O)OCn2nnc3ccccc3c2=O)cc1C
  IC50: 9.99 µM

## COCCNC(=O)/C(C#N)=C/c1ccc(OCc2ccccc2)cc1
  IC50: 9.3 µM

## Cn1c(C=O)c(C#Cc2ccccc2)c2ccccc21
  IC50: 6.21 µM

## O=[N+]([O-])c1ccccc1S(=O)(=O)Nc1cccc2cccnc12
  IC50: 7.7 µM

## CCc1ccc2oc(-c3cc(N)ccc3Cl)nc2c1
  IC50: 6.18 µM

## C/C(=N\Nc1ccc([N+](=O)[O-])cc1)c1ccc(O)cc1
  IC50: 5.17 µM

## COc1cccc(C(=O)Nc2ccccc2)c1
  IC50: 9.33 µM

## O=C(Nc1ccc(F)c([N+](=O)[O-])c1)c1cccs1
  IC50: 15.3 µM

## Cc1cccc(C)c1N1C(=O)CN(Cc2ccccc2)C1=S
  IC50: 28.1 µM

## Cc1ccc(-c2nnc(N3CCC(C)CC3)c3ccccc23)cc1
  IC50: 13.7 µM

## COc1cccc(NC(=O)c2ccccc2)c1
  IC50: 11.3 µM

## Cc1nc2ccc(C(C(F)(F)F)(C(F)(F)F)C(F)(F)F)cc2[nH]1
  IC50: 5.02 µM

## COc1ccc(C(=O)c2sc(Nc3ccccc3F)nc2N)cc1
  IC50: 8.51 µM

## Cc1cc(C)nc(SCC(=O)c2cc3ccccc3oc2=O)n1
  IC50: 9.91 µM

## CN(C(=O)c1ccco1)c1nnc(C23CC4CC(CC(C4)C2)C3)s1
  IC50: 20.8 µM

## Cc1ccn2cc(-c3ccc(NC(=O)c4ccco4)cc3)nc2c1
  IC50: 17.6 µM

## O=C(Nc1nc(-c2cccs2)c(-c2ccccc2)s1)c1ccco1
  IC50: 11.5 µM

## O=C(Nc1ccc(Cl)cc1)c1cccs1
  IC50: 11 µM

## Cc1ccc(Nc2ccc([N+](=O)[O-])nc2[N+](=O)[O-])cc1
  IC50: 44.3 µM

## O=C(Oc1cccc2c(O)cccc12)c1ccccc1
  IC50: 8.69 µM

## O=C(Nc1ccc(-c2cn3ccccc3n2)cc1)c1ccco1
  IC50: 6.01 µM

## CCN(CC)c1ccc2c(C)c(-c3ccc(N)cc3)c(=O)oc2c1
  IC50: 13.9 µM

## O=C1OC(c2ccccc2)=N/C1=C\C=C\c1ccco1
  IC50: 5.33 µM

## CSC1=N/C(=C\c2ccc(C)cc2)C(=O)S1
  IC50: 10.3 µM

## O=[N+]([O-])c1ccc(N/N=C/c2cccc(O)c2)cc1
  IC50: 6.99 µM

## CC(C)N=c1scc(-c2ccco2)n1/N=C/c1ccc(O)c(O)c1
  IC50: 11.9 µM

## O=c1c2ccccc2nc(-c2ccc([N+](=O)[O-])cc2)n1O
  IC50: 7.67 µM

## N#C/C(=C/c1ccc(N2CCOCC2)o1)c1nc2ccccc2[nH]1
  IC50: 7.2 µM

## O=C(Nc1ccn(Cc2ccc(Cl)cc2)n1)c1ccc2c(c1)OCO2
  IC50: 11.1 µM

## COc1ccccc1-c1cc(C(=O)N/N=C/c2ccc(C)s2)c2ccccc2n1
  IC50: 18.8 µM

## Cc1ccc2nc(NC(=O)COC(=O)c3cccnc3)sc2c1
  IC50: 9.58 µM

## Cc1cc(NC(=O)c2ccco2)sc1C
  IC50: 18 µM

## N=c1c2c(-c3ccccc3)c(-c3ccccc3)n(Cc3ccco3)c2ncn1Cc1ccco1
  IC50: 9.92 µM

## N=c1c2c(-c3ccccc3)c(-c3ccccc3)n(Cc3ccco3)c2ncn1Cc1ccccc1
  IC50: 10.9 µM

## COc1cccc2sc3cc(NCc4ccc5c(c4)OCO5)ccc3c(=O)c12
  IC50: 12.3 µM

## O=C(N/N=C/C(Br)=C/c1ccccc1)c1ccccc1F
  IC50: 12.3 µM

## Nc1ccc(/C=C/C(=O)c2cccs2)cc1
  IC50: 4.31 µM

## CC(C)n1ncc2c(C(=O)NCC(=O)Nc3ccccc3Br)cc(C3CC3)nc21
  IC50: 16 µM

## O=c1oc(-c2ccccc2F)nc2c1cnn2-c1ccccc1
  IC50: 7.71 µM

## Cc1ccc(/C=N/NC(=O)c2ccc3c(c2)OCCO3)s1
  IC50: 34.6 µM

## CCN1C(=O)/C(=C2\SC(N3CCCCC3)=NC2=O)c2ccccc21
  IC50: 17.8 µM

## Cc1[nH][nH]c(=O)c1C(c1ccc(-c2ccc(F)cc2)o1)c1c(C)[nH][nH]c1=O
  IC50: 7.74 µM

## Cc1ccnc(NC(=O)c2ccc3c(c2)C(=O)N(CC(C)C)C3=O)c1
  IC50: 13 µM

## O=C(Nc1scc(-c2ccccc2)c1C(=O)O)c1ccccc1F
  IC50: 12.2 µM
